The record followed here is patent US5888972A, “Peptide compounds, their preparation and uses” (Fujisawa Pharmaceutical Co., Ltd., priority 1993, dated 1999).

This assay deals with endothelin receptors. The assay can be described thus: Radioligand binding assay: [^125 I]ET-1 binding in porcine kidney membrane. The conditions noted are these: membranes from inner medulla of porcine kidney; [^125 I]ET-1 16 pM; 60 minutes at 23° C.; read-out: Effect on specific binding of [^125 I]ET-1 in porcine kidney membrane, IC50. The protocol:
Radioligand binding assay:
(a) Crude receptor membrane preparation:
Membranes as endothelin receptors were isolated from inner medulla of porcine kidney. The inner medulla of porcine kidney was placed in ice-cold buffer (0.25M sucrose, 5 mM Tris-HCl, 0.1 mM EDTA, pH 7.5). The inner medulla was homogenized in five volumes (w/v) of ice-cold buffer using a Brinkman Polytron PT-10 at a setting of 16,000 rpm for three 10-sec periods. The homogenate was centrifuged at 10,000×g for 20 minutes at 4° C. The pellet was discarded and the supernatant was centrifuged at 100,000×g for 60 minutes at 4° C. […]
To determine [^125 I]ET-1 binding to kidney, membrane suspensions prepared from kidney (10 μg of protein) were incubated by constant shaking for 60 minutes at 23° C. with [^125 I]ET-1 (range, 4-900 pM) in a total volume of 250 μl of buffer 1 that contained 0.1 mg/ml of bovine serum albumin. […] The filter disks were washed three times with 0.2 ml of ice-cold 50 mM Tris-HCl buffer (pH 7.5), and the radioactivity was counted in a gamma counter (Hewlett-Packard) with an efficiency of 71%. […] The Kd was determined by Scatchard analysis. […]

Consider `CC(C)C[C@@H](C(=O)N[C@H](Cc1cccc2ccccc12)C(=O)N[C@@H](C(=O)O)C(C)C)N(CCN(C)Cc1cccnc1)C(=O)Cc1ccccc1Cl` [Compound A], for which the IC50 was 68 nM.

Usually IC50 stands for the midpoint of a concentration-inhibition curve.
